IC50 data for five compounds are collected here from ChEMBL document CHEMBL2346642, “Antioxidant and antiproliferative activity of glycosides obtained by biotransformation of xanthohumol” (Bioorg Med Chem Lett, 2013).

The subject of experiment [1] is MCF7. As to the kind of experiment: Antiproliferative activity against human MCF7 cells after 72 hrs by SRB assay. It counts as functional, cell-based. The conditions noted are these: MCF7, 72 h. In general terms: The SRB assay estimates cell density from bound dye.
Experiment [2] relates to Radical scavenging activity. Briefly: Antioxidant activity assessed as DPPH radical scavenging activity by UV-vis spectrophotometry analysis. The experiment is classed as functional. A general note: Loss of DPPH colour is used to gauge radical scavenging.
Experiment [3] relates to HT-29. Briefly: Antiproliferative activity against human HT-29 cells after 72 hrs by SRB assay. It counts as functional, cell-based.
Experiment [4] concerns PC-3. Briefly: Antiproliferative activity against human PC3 cells after 72 hrs by SRB assay. The experiment is classed as functional, cell-based.
The mark [5] stands for this setting: Homo sapiens, HT-29, 72 h, read-out: IC50.
Where [6] appears, read: Homo sapiens, PC-3, 72 h, read-out: IC50.

One may read the IC50 as the point on the concentration scale where inhibition reaches its midpoint. For the compound `COc1cc(O[C@@H]2O[C@H](CO)[C@@H](O)[C@H](O)[C@H]2O)c(CC=C(C)C)c2c1C(=O)C[C@@H](c1ccc(O)cc1)O2`, the concentration for half-maximal inhibition (IC50) was 146 µM in experiment [1], 6.13 µM in experiment [2], “Not Active” in experiment [3] (ht-29) and “Not Active” in experiment [4] (pc-3).

In the case of `COc1cc(O[C@@H]2O[C@H](CO)[C@@H](OC)[C@H](O)[C@H]2O)c(CC=C(C)C)c(O)c1C(=O)/C=C/c1ccc(O)cc1`, the IC50 in experiment [1] is 19.9 µM; in experiment [2], 9.06 µM; in experiment [3] (setting [5]) it was 51.8 µM; in experiment [4] (setting [6]) it was 47.9 µM.

On to `O=C1O[C@H]([C@@H](O)CO)C(O)=C1O` [ASCORBIC ACID], for which the IC50 in experiment [2] turned out to be 0.52 µM.

As for `COc1cc(O[C@@H]2O[C@H](CO)[C@@H](O)[C@H](O)[C@H]2O)c(CC=C(C)C)c(O)c1C(=O)/C=C/c1ccc(O)cc1` [XANTHOHUMOL-4'-O-BETA-D-GLUCOPYRANOSIDE], the concentration for half-maximal inhibition (IC50) in experiment [1] came to 51.4 µM; in experiment [2], 0.77 µM; in experiment [3] (setting [5]), 63.6 µM; in experiment [4] (setting [6]), 58.1 µM.

With `COc1cc(O)c(CC=C(C)C)c(O)c1C(=O)/C=C/c1ccc(O)cc1` [XANTHOHUMOL], the half-maximal inhibitory concentration (IC50) in experiment [2] was determined as 1.98 µM.
